The values below come from patent publication US7375203B2, “Canine cold- and menthol-sensitive receptor 1” (Janssen Pharmaceutica N.V., priority 2004, dated 2008).

One assay relates to cCMR1 channel. As to the kind of experiment: Whole-cell patch clamp recording of HEK293 cells stably transfected with cCMR1. The class given is cell-based, canine. On the procedure:
HEK293 cells stably transfected with canine cCMR1 were cultured in DMEM supplemented with 10% fetal bovine serum, 100 units/ml penicillin, 100 μg/ml streptomycin and 1 mg/ml G418. Cells were maintained at 37° C. and in 5% CO2. Unless otherwise indicated, the standard extracellular solution used for recording contained (in mM): NaCl, 132; EGTA, 1; KCl, 5.4; MgCl2, 0.8; HEPES, 10; glucose, 10; pH=7.4. In experiments where the extracellular solution contained Ca^2+, the extracellular solution used was one of the following (in mM), depending on the Ca^2+ concentration used: (1) NaCl, 132; CaCl2, 0.1 or 1.8; KCl, 5.4; MgCl2, 0.8; HEPES, 10; glucose, 10; pH=7.4; (2) NaCl, 116; CaCl2, 10; KCl, 5.4; MgCl2, 0.8; HEPES, 10; glucose, 10; pH=7.4. The intracellular solution used to fill recording pipettes contained (in mM): CsCl, 145; EGTA, 5; HEPES, 10; glucose, 5; pH=7.4. Recordings were performed using the conventional whole-cell patch clamp technique, 1-2 days after plating cells onto glass coverslips at densities appropriate for single cell recording. Currents were amplified by a patch clamp amplifier and filtered at 2 kHz (Axopatch 200B, Axon Instruments). […] Recordings involving agonist stimulations were performed at 22° C. In experiments where temperatures were varied, temperature ramps were generated by heating/cooling the perfusate in a dual in-line heater/cooler (Model SC-20, Warner Instruments, Hamden, Conn.) controlled by a bipolar temperature controller (Model CL-100, Warner Instruments). The temperature in the vicinity of the recorded cell was measured with a custom-made miniature thermo-microprobe connected to a monitoring thermometer (Model TH-8, Physitemp, Clifton, N.J.), and sampled using Digidata 1322A and pClamp 9.0 (Axon Instruments, Union City, Calif.), as were the currents concurrently measured in the whole-cell patch clamp mode. Two voltage protocols were used in these studies. The first involved a 600 ms voltage ramp from −100 mV to +60 mV at a sampling rate of 10 kHz. This voltage pulse was repeated once every 5 seconds. The cell was held at −100 mV between voltage pulses. In the second protocol, the cell was held at −80 mV and the current was continuously sampled (at 100 Hz) at this holding potential.

Another assay relates to canine CMR1 (cCMR1). As to the kind of experiment: Cell-based calcium influx (FLIPR) assay on HEK293 cells stably transfected with cCMR1. Particulars: for calcium-mediated fluorescence (calcium influx): added at 200 seconds, room temperature. On the procedure: The following day, the cells were loaded with buffer and calcium dye (Molecular Devices, Sunnyvale, Calif.) in a final volume of 40 μl and incubated for 30 minutes at room temperature. The fluorescence intensity was measured by FLIPR before and after the addition of menthol or icilin, which were added to the cells at a concentration of 100 μM or 10 μM each, respectively.
HEK293 cells stably transfected with cCMR1 were seeded in a 384 will plate at a concentration of […] and incubated overnight at 37° C./5% CO2. The following day the cells were loaded with calcium dye and incubated for 30 minutes at room temperature. The calcium-mediated fluorescence intensity was measured by FLIPR before and after the compound was administered to the cells.

The structures appear in SMILES notation. Entries after “also recorded” stand apart in the source; their conditions may differ.

Broadly, the IC50 is the concentration at which inhibition is half-maximal.

For `[Ca+2]` [extracellular Ca^2+], the “desensitization of menthol-activated cCMR1 current” value in the assay on cCMR1 channel (1.8 mM extracellular Ca^2+, 100 μM menthol, −80 mV) is on record as “desensitization readily occurred”. Also, the “voltage dependence of inhibition of cCMR1 current amplitude” value in the assay with cCMR1 channel (10 mM extracellular Ca^2+, channel activated by 1 mM menthol) is on record as “strongly inhibited the current amplitude at hyperpolarized potentials”. The IC50 in the assay on cCMR1 channel (voltage-clamped at −80 mV, channel activated by 1 mM menthol, logistic best fit, read-out: IC50 of inhibition of cCMR1 current amplitude by extracellular Ca^2+) was 1600 µM.

In the case of `O=C1NC(c2cccc([N+](=O)[O-])c2)=CCN1c1ccccc1O` [icilin], in the assay with canine CMR1 (cCMR1) (100 nM icilin (positive control)), the “calcium-mediated fluorescence (activation of cCMR1)” value is on record as “sensitive; also recorded: increase in calcium-mediated fluorescence”. The “calcium-mediated fluorescence (calcium influx)” value in the assay with canine CMR1 (cCMR1) (10 μM icilin) is “increase in calcium-mediated fluorescence”. The “whole-cell current amplitude, rectification and reversal potential” value in the assay on cCMR1 channel (icilin (1 μM), voltage ramp protocol, compared with the menthol results) is “Qualitatively similar results”.

Consider `CC1CCC(C(C)C)C(O)C1` (centres unmarked) [menthol], for which the “calcium-mediated fluorescence (calcium influx)” value in the assay on canine CMR1 (cCMR1) (100 μM (−)-menthol) is “increase in calcium-mediated fluorescence”. The “reversal potential of the menthol-activated current” value in the assay on cCMR1 channel (100 μM menthol, voltage ramp protocol) is given as approximately 0 mV. Also, the whole-cell current amplitude entry in the assay on cCMR1 channel (100 μM menthol, voltage ramp −100 mV to +60 mV, 22° C., compared to buffer control) is given as “large increase of the whole-cell current amplitude”. In addition, in the assay on cCMR1 channel (100 μM menthol, −80 mV, no extracellular Ca^2+), the “current activated in the absence of extracellular Ca^2+” value is listed as “activated a non-desensitizing current”.

Regarding `C=CCN=C=S` [mustard oil], the “calcium-mediated fluorescence (activation of cCMR1)” value in the assay on canine CMR1 (cCMR1) (1 mM mustard oil) was “activated; also recorded: increase in calcium-mediated fluorescence”.
